Experimental data published in ChEMBL document CHEMBL1132827, “New multidrug resistance modulators from Atractylodis Lanceae Rhizoma” (2000).

Columns and labels:
KB-C2 [1] = assay: Inhibition of growth of KB-C2 cells at the dose of 1 ug/mL of compound in presence of 0.1 ug/mL of colchicine
KB-C2 [2] = assay: Inhibition of growth of KB-C2 cells at the dose of 3 ug/mL of compound in presence of 0.1 ug/mL of colchicine
KB-C2 [3] = assay: Inhibition of growth of KB-C2 cells at the dose of 10 ug/mL of compound in presence of 0.1 ug/mL of colchicine
KB 3-1 [4] = assay: Cytotoxicity (10 ug/mL) was evaluated against KB-3-1 cell lines by observing the effect on growth of cells tested; type: functional, Homo sapiens
KB 3-1 [5] = assay: Cytotoxicity (1 ug/mL) was evaluated against KB-3-1 cell lines by observing the effect on growth of cells tested; type: functional, Homo sapiens
KB 3-1 [6] = assay: Cytotoxicity (3 ug/mL) was evaluated against KB-3-1 cell lines by observing the effect on growth of cells tested; type: functional, Homo sapiens

In the case of CC(C)CC(=O)OC[C@H]1O[C@@](COC(=O)CC(C)C)(O[C@@H]2O[C@H](CO)[C@@H](O)[C@H](O)[C@H]2OC(=O)CC(C)C)[C@@H](OC(=O)CC(C)C)[C@@H]1O.CC[C@@H](C)C(=O)OC[C@@]1(O[C@@H]2O[C@H](CO)[C@@H](O)[C@H](O)[C@H]2OC(=O)CC(C)C)O[C@H](COC(=O)CC(C)C)[C@@H](O)[C@@H]1OC(=O)CC(C)C, the Inhibition (KB-C2 [1]) is reported as 23%, the Inhibition (KB-C2 [2]) is reported as 32% and the Inhibition (KB-C2 [3]) is reported as 33%. For the same compound, the Inhibition (KB 3-1 [4]) was 20%, the Inhibition (KB 3-1 [5]) was 17% and the Inhibition (KB 3-1 [6]) was 19%.
CC(C)CC(=O)OC[C@H]1O[C@@](COC(=O)C(C)C)(O[C@@H]2O[C@H](CO)[C@@H](O)[C@H](O)[C@H]2OC(=O)CC(C)C)[C@@H](OC(=O)CC(C)C)[C@@H]1OC(=O)CC(C)C.CC(C)CC(=O)OC[C@H]1O[C@@](COC(=O)CC(C)C)(O[C@@H]2O[C@H](CO)[C@@H](O)[C@H](O)[C@H]2OC(=O)CC(C)C)[C@@H](OC(=O)CC(C)C)[C@@H]1OC(=O)C(C)C.CC[C@@H](C)C(=O)OC[C@@]1(O[C@@H]2O[C@H](CO)[C@@H](O)[C@H](O)[C@H]2OC(=O)CC(C)C)O[C@H](COC(=O)CC(C)C)[C@@H](OC(=O)C(C)C)[C@@H]1OC(=O)CC(C)C.CC[C@@H](C)C(=O)O[C@@H]1[C@@H](COC(=O)CC(C)C)O[C@@](COC(=O)C(C)C)(O[C@@H]2O[C@H](CO)[C@@H](O)[C@H](O)[C@H]2OC(=O)CC(C)C)[C@H]1OC(=O)CC(C)C showed an Inhibition (KB-C2 [1]) of 38%, an Inhibition (KB-C2 [2]) of 83% and an Inhibition (KB-C2 [3]) of 96%. It also gave an Inhibition (KB 3-1 [4]) of 94%, an Inhibition (KB 3-1 [5]) of 6% and an Inhibition (KB 3-1 [6]) of 13%.
CC(C)CC(=O)OC[C@H]1O[C@@](COC(=O)CC(C)C)(O[C@H]2O[C@H](CO)[C@@H](O)[C@H](O)[C@H]2OC(=O)CC(C)C)[C@@H](OC(=O)CC(C)C)[C@@H]1OC(=O)CC(C)C.CC[C@@H](C)C(=O)OC[C@@]1(O[C@H]2O[C@H](CO)[C@@H](O)[C@H](O)[C@H]2OC(=O)CC(C)C)O[C@H](COC(=O)CC(C)C)[C@@H](OC(=O)CC(C)C)[C@@H]1OC(=O)CC(C)C.CC[C@@H](C)C(=O)O[C@@H]1[C@@H](COC(=O)CC(C)C)O[C@@](COC(=O)CC(C)C)(O[C@H]2O[C@H](CO)[C@@H](O)[C@H](O)[C@H]2OC(=O)CC(C)C)[C@H]1OC(=O)CC(C)C showed an Inhibition (KB-C2 [1]) of 57%, an Inhibition (KB-C2 [2]) of 86% and an Inhibition (KB-C2 [3]) of 96%. It also gave an Inhibition (KB 3-1 [4]) of 95%, an Inhibition (KB 3-1 [5]) of 11% and an Inhibition (KB 3-1 [6]) of 14%.
